Measurements: patent US20140371267A1, “OPHTHALMIC COMPOSITION WITH NITRIC OXIDE DONOR COMPOUND AND METHOD OF FORMING AND USING SAME” (ALCON RESEARCH, LTD., priority 2009, published 2014)

Columns and labels:
ARPE-19 cells = test: 7-ketocholesterol-induced RPE cell death, WST-1 cell viability; type: cell-based; details: for % Survival: compared to media-treated cells
Description: Compound 1 was evaluated for its ability to prevent 7-ketocholesterol-induced retinal pigmented epithelial (RPE) cell death in vitro. ARPE-19 cells were grown in DMEM:F12 (Invitrogen) (1:1) with 10% FBS (HyClone) and 56 mM Na Bicarbonate (Gibco) in a 10% CO2 humidified 37° C. incubator. Cells were split at a ratio of 1:3 once per week and fed every 2-3 days. ARPE-19 cells were plated at a density of 12,500 cells per well in 100 μL, which is approximately […].
7-ketocholesterol (5-CHOLESTEN-3β-OL-7-ONE) and Cholesterol (5-CHOLESTEN-3β-OL) (Steraloids, Inc., Newport R.I.) were resuspended in 37° C. 45% 2-hydroxylpropyl-β-cyclodextrin at a concentration of 10 mM. Working dilutions of 1 mM are subsequently made in 37° C. DMEM:/F12 containing 0.1% FBS and NaBicarb. Further dilutions (5 to 30 μM) for treatment were also made in 37° C. DMEM:F12 with 0.1% FBS and NaBicarb to maintain activity of the 7-ketocholesterol. As negative controls, vehicle alone and cholesterol suspended in 2-HP-β-cyclodextrin were included in each experiment.
Cell proliferation reagent WST-1 (Roche), a tetrazolium salt that is cleaved to formazan through the mitochondrial succinate-tetrazolium-reductase system in live cells, was used as a measure of cell viability. Cells were treated with 7-ketocholesterol for 1 day, at which time 10 μL at of WST-1 reagent was added to each well containing 100 μL at of media. The plates were then incubated for 1-4 hours to allow for adequate color development and then absorbance was read in a microplate ELISA reader at […]. WST reagent was also added to one set of control wells containing media only. These readings were subtracted from each of the WST readings as background. Cell viability for all treated wells was normalized to the well with untreated cells and data is presented as percent survival as compared to untreated. The table below summarizes the results.

[1] = vasodilators; cited from earlier work
[2] = in vitro; versus GTN and SNAP; cited from earlier work
[3] = tested on: cynomolgus monkeys with ocular hypertension; test: IOP reduction in lasered ocular hypertensive monkeys; type: in vivo; details: 150 μg in 30 μL drop, topical, lasered eye
Description: The ability of compound 1 of the present invention to reduce IOP was evaluated in cynomolgus monkeys with ocular hypertension produced by previous laser trabeculoplasty in the right eye. Animals had been trained to sit in restraint chairs and conditioned to accept experimental procedures without chemical restraint. Animals were administered a 30 μL drop containing 150 μg of compound 1 dissolved in vehicle to the lasered eye. IOP was determined with a pneumatonometer after light corneal anesthesia with dilute proparacaine. The drug was dosed 35 minutes after the baseline IOP was measured.

c-GMP = details: cited from earlier work

Row | Structure (SMILES) | % Survival (ARPE-19 cells; 7-ketocholesterol 20 μM alone, 1 day) | NO-tolerance in vivo [1] | RPE cytoprotection (ARPE-19 cells; 10 μM) | RPE cytoprotection (ARPE-19 cells; 100 μM) | % Survival (ARPE-19 cells; compound at 100 nM, 7-ketocholesterol-treated cells) | % Survival (ARPE-19 cells; compound at 1 μM, 7-ketocholesterol-treated cells) | % Survival (ARPE-19 cells; compound at 10 μM, 7-ketocholesterol-treated cells) | % Survival (ARPE-19 cells; compound at 100 μM, 7-ketocholesterol-treated cells) | vasorelaxation efficacy [2] | % IOP change from baseline ([3]; 1 hour after dosing) | % IOP change from baseline ([3]; 3 hours after dosing) | % IOP change from baseline ([3]; 6 hours after dosing) | c-GMP concentration (c-GMP) | c-GMP effect relative to GTN (c-GMP)
1 | CC(C)CCC[C@@H](C)[C@H]1CC[C@H]2[C@@H]3C(=O)C=C4C[C@@H](O)CC[C@]4(C)[C@H]3CC[C@]12C [7-ketocholesterol, 5-CHOLESTEN-3β-OL-7-ONE, reference compound] | 50% |  |  |  |  |  |  |  |  |  |  |  |  | 
2 | CC1(C)CC(CO[N+](=O)[O-])C(C)(C)N1[O] (stereo not drawn) [Compound 2, 3-Nitratomethyl-Proxyl] |  | do not produce NO-tolerance in vivo |  |  |  |  |  |  |  |  |  |  |  | 
3 | CC1(C)CC(O[N+](=O)[O-])CC(C)(C)N1[O] [Compound 1] |  | do not produce NO-tolerance in vivo | significant | complete | 60% | 60% | 75% | 100% | superior activity | −15.3% | −16.7% | −20.7% | significant increase | comparable to that of GTN
